Data on 12 compounds can be found in article PMC10302582, “Unveiling the Potential of BenzylethyleneAryl–Urea Scaffolds for the Design of New Onco Immunomodulating Agents” (Pharmaceuticals, 2023).

For data set [1], the system named is HT-29 (colon adenocarcinoma). The data set is described as follows: MTT cell proliferation assay, HT-29. It is filed as cell-based. The following applies: Homo sapiens, HT-29; MTT, 48 h treatment; read-out: IC50 HT-29. The method, then: (§1) After the supernatant was discarded, we solved the formazan crystal in 100 µL of DMSO. The absorbance was then registered at 550 nm using a plate lector. For all concentrations of any compound, cell viability was expressed as the percentage of the ratio between the mean absorbance of the treated cells and the mean absorbance of the untreated cells. Three to five experiments were performed to establish the IC50 values (i.e., concentration half inhibiting cell proliferation, we used GraphPad Prism 7 software).

The test system of data set [2] is Jurkat T-cells. Kind of data set: MTT cell proliferation assay, Jurkat T-cells. The class given is cell-based. The conditions noted are these: 48 h treatment. The method, then:
(§2) The action on cell proliferation caused by our developed compounds was studied using an MTT assay using the human tumor cell lines of HT-29 (colon adenocarcinoma) and A-549 (pulmonary adenocarcinoma), as well as toward the non-tumor cell line HEK-293 (human embryonic kidney cells), Jurkat T-cells and human microvessel endothelial cells (HMEC-1).
(§3) In general, 5 × 10^3 (HT-29, A549, HMEC-1, Jurkat and HEK-293) cells per well were seeded in 96-well plates with 1:1 dilutions of the compounds in a volume of 100 μL of the cell media. The 3-(4,5-dimethylthiazol-2-yl)-2,5-diphenyltetrazolium bromide (MTT; Sigma Chemical Co.) dye exclusion assay was performed, and after 48 h (37 °C, 5% CO2 in a humid atmosphere), 10 μL of MTT (5 mg/mL in phosphate-buffered saline, PBS) was added to each well and incubated for 3 h at 37 °C. After the supernatant was discarded, we solved the formazan crystal in 100 µL of DMSO. The absorbance was then registered at 550 nm using a plate lector. For all concentrations of any compound, cell viability was expressed as the percentage of the ratio between the mean absorbance of the treated cells and the mean absorbance of the untreated cells. Three to five experiments were performed to establish the IC50 values (i.e., concentration half inhibiting cell proliferation, we used GraphPad Prism 7 software).
(Formazan colour is commonly taken as a measure of viable cells.)

In data set [3] the test system is HEK-293 (human embryonic kidney cells). Kind of data set: MTT cell proliferation assay, HEK-293. The class given is cell-based. The following applies: HEK293, 48 h treatment. The method, then:
as §2, §3

The test system of data set [4] is human microvessel endothelial cells (HMEC-1). Kind of data set: MTT cell proliferation assay, HMEC-1. The class given is cell-based. The following applies: 48 h treatment. The method, then:
as §2, §3

Data set [5] deals with A-549 (pulmonary adenocarcinoma). The data set is described as follows: MTT cell proliferation assay, A-549. The class given is cell-based. The conditions noted are these: Homo sapiens, A549; MTT, 48 h treatment; read-out: IC50 A-549. The method, then:
as §1

Data set [6] has as its system HMEC-1 endothelial cells. Kind of data set: Microvessel formation inhibition assay on Matrigel. The class given is cell-based, human. The following applies: HMEC-1 on Matrigel. The method, then:
The antiangiogenic action of the selected compounds, as well as the reference compounds, was evaluated by determining the effect on the formation of new microvessels formed by HMEC-1 endothelial cells on a Matrigel matrix.
We used IBIDI μ-slide angiogenesis plates (IBIDI, Martins ried, Germany). The wells were coated with 15 μL of Matrigel® (10 mg/mL, BD Biosciences, San Jose, CA, USA) at 4 °C and incubated at 37 °C for at least 30 min. Afterward, the HMEC-1 cells were seeded at 2 × 10^4 cells/well in 25 μL of medium and were left for 30 min at 37 °C while they attached. Then, the compounds were added in serial doses in 25 μL of the medium, and after several hours (maximum 24 h) of incubation at 37 °C, pictures for the wells were taken to evaluate the formation of microvessels.

Data set [7] deals with T1, PD-L1 (Homo sapiens, UniProt Q9NZQ7).
T1 construct: assess the effect of our new ureas on these two proteins only on the HT-29 cancer cell line through the use of flow cytometry; endogenous in cells; host or cells: HT-29
T1 sequence (Q9NZQ7 19-290): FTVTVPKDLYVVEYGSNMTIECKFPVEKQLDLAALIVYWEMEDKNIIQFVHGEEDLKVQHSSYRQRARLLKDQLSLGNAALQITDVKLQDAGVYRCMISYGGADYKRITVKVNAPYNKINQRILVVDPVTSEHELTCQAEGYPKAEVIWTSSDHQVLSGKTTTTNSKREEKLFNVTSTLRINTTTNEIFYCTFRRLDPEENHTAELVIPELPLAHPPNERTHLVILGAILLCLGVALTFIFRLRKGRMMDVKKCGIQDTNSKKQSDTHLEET
The data set is described as follows: PD-L1 relative quantification by flow cytometry in HT-29 cells. The class given is cell-based. The following applies: for total PD-L1 (%) expression: HT-29 cells, 24 h, relative to DMSO control = 100. The method, then:
The cells were incubated for a period of time of one day with doses of each of the selected compounds at two different doses: 20 and 100 µM concentrations.
The effects of the compounds on the target in the cancer cell lines compounds were tested using 20 and 100 µM doses. For that, 10^5 cells per well were seeded on a 12-well plate for 24 h with the corresponding dose of the tested compound in a total volume of 500 μL of cell media. To determine the total PD-L1 and VEGFR-2, the cells were collected and fixed with 4% in a PBS of formaldehyde. After this, a treatment with 0.5% in PBS Triton^TM X-100 permeabilized the membranes. Finally, the cells were treated with FITC Mouse monoclonal Anti-Human VEGFR-2 (ab184903) and Alexa Fluor® 647 Rabbit monoclonal Anti-PD-L1 (ab215251).
To determine surface PD-L1 and VEGFR-2, the assay used was similar to the above but avoided the permeabilization step (Triton^TM X-100).
A general note: Flow cytometry measures light scatter and fluorescence of single cells or particles in a stream.

The term IC50 denotes the point on the concentration scale where inhibition reaches its midpoint. What is called melting point is the temperature of the solid-liquid transition. In turn, `COc1ccc(CCCc2cccc(NC(=O)Nc3ccccc3F)c2)cc1` [C.5] had a melting point of 152 °C. The IC50 in data set [1] stood at 58 ± 16 µM. The IC50 in data set [2] (Homo sapiens, Jurkat, 48 h) is above 100 µM. The compound further displayed an IC50 in data set [3] of 24 ± 4 µM. In data set [4] (Homo sapiens, HMEC-1, 48 h), this compound came in with an IC50 above 100 µM. For the same compound, the IC50 in data set [5] is 29 ± 5 µM.
Take `COc1ccc(CCCc2cccc(NC(=O)Nc3ccc(Br)cc3)c2)cc1` [C.9]: the IC50 in data set [1] is 1.9 ± 0.6 µM; in data set [2] (Homo sapiens, Jurkat, 48 h), above 100 µM; in data set [3], 2.1 ± 0.2 µM; in data set [4] (Homo sapiens, HMEC-1, 48 h), above 100 µM; in data set [5], 7 ± 1 µM.
As to `CCN(CC)CCNC(=O)c1c(C)[nH]c(/C=C2\C(=O)Nc3ccc(F)cc32)c1C` [Sunitinib, reference compound], the “Minimum Active Conc. inhibiting microtube formation” value in data set [6] worked out at 3 µM.
`COc1ccc(CCCc2cccc(NC(=O)Nc3cccc(OC)c3)c2)cc1` [C.13] showed a melting point of 107 to 110 °C. Besides, the half-inhibitory concentration (IC50) in data set [1] stood at 8 ± 5 µM. For the same compound, the IC50 in data set [2] was found to be 24 ± 4 µM. Also, the IC50 in data set [2] (Homo sapiens, Jurkat, 48 h) was around 20 µM. In data set [3], half-maximal inhibition (IC50) was put at 15 ± 3 µM. Also, in data set [4] (Homo sapiens, HMEC-1, 48 h), the IC50 is around 20 µM. Besides, in data set [5], the IC50 came out at 18 ± 5 µM.
With `COc1ccc(CCCc2cccc(NC(=O)Nc3cccc(Cl)c3)c2)cc1` [C.7], the melting point is 143 to 147 °C. The IC50 in data set [1] was found to be 14 ± 3 µM. The same compound yielded an IC50 in data set [2] of 17 ± 1 µM. Further, in data set [2] (Homo sapiens, Jurkat, 48 h), the IC50 was around 20 µM. The IC50 in data set [3] was determined as 14 ± 3 µM. It took 18 ± 8 µM to reach half-maximal inhibition in data set [4] (IC50). This compound gave an IC50 in data set [4] (Homo sapiens, HMEC-1, 48 h) of around 20 µM. For the same compound, the IC50 in data set [5] stood at 19 ± 1 µM.
As to `COc1ccc(CCCc2cccc(NC(=O)Nc3ccccc3Cl)c2)cc1` [C.8], the melting point was in the range of 134 to 136 °C. Also, the IC50 in data set [1] was determined as 47 ± 2 µM. This compound also came in with an IC50 in data set [2] (Homo sapiens, Jurkat, 48 h) above 100 µM. The compound also showed an IC50 in data set [3] of 37 ± 8 µM. The same compound returned an IC50 in data set [4] (Homo sapiens, HMEC-1, 48 h) above 100 µM. The IC50 in data set [5] was above 100 µM.
With `COc1ccc(CCCc2cccc(NC(=O)Nc3cccc(F)c3)c2)cc1` [C.4], the melting point amounted to 154 °C. Moreover, the IC50 in data set [1] was above 100 µM. In addition, the IC50 in data set [2] (Homo sapiens, Jurkat, 48 h) was above 100 µM. In data set [3], this compound had an IC50 of 22 ± 5 µM. Besides, the IC50 in data set [4] (Homo sapiens, HMEC-1, 48 h) was above 100 µM. Further, the half-inhibitory concentration (IC50) in data set [5] was above 100 µM.
The compound `COc1ccc(CCCc2cccc(NC(=O)Nc3cccc(Br)c3)c2)cc1` [C.10] registered a melting point of 141 to 144 °C. In addition, the concentration for half-maximal inhibition (IC50) in data set [1] came out at 11 ± 2 µM. In addition, in data set [2], it took 18 ± 7 µM to reach half-maximal inhibition (IC50). The IC50 in data set [2] (Homo sapiens, Jurkat, 48 h) was around 20 µM. In data set [3], this compound returned an IC50 of 9 ± 4 µM. Also, inhibition in data set [4] was half-maximal at 17 ± 7 µM (IC50). In data set [4] (Homo sapiens, HMEC-1, 48 h), the IC50 is around 20 µM. The IC50 in data set [5] was 8 ± 2 µM.
With `COc1ccc(CCCc2cccc(NC(=O)Nc3ccc(Cl)cc3)c2)cc1` [C.6], the melting point was in the range of 179 to 182 °C. In data set [1], the IC50 is 4 ± 1 µM. For the same compound, the IC50 in data set [2] (Homo sapiens, Jurkat, 48 h) was above 100 µM. The same compound showed an IC50 in data set [3] of 4 ± 1 µM. In addition, in data set [4] (Homo sapiens, HMEC-1, 48 h), the IC50 is above 100 µM. Besides, the IC50 in data set [5] worked out at 20 ± 10 µM.
As for `CNC(=O)c1cc(Oc2ccc(NC(=O)Nc3ccc(Cl)c(C(F)(F)F)c3)cc2)ccn1` [Sorafenib, sorafenib, reference compound], the half-maximal inhibitory concentration (IC50) in data set [1] turned out to be 17 ± 4 µM; in data set [3], 5 ± 0.7 µM; in data set [4] (Homo sapiens, HMEC-1, 48 h), 34 ± 3 µM; in data set [5], 27 ± 2 µM. Besides, the “Minimum Active Conc. inhibiting microtube formation” value in data set [6] was found to be 10 µM. For the same compound, the “effect on total PD-L1” value in data set [7] (HT-29, at either of the tested doses (20 and 100 μM)) was “No significant effect”. The “total PD-L1 (%) expression” value in data set [7] (20 μM) was 96 ± 49%; in data set [7] (100 μM) it was 102 ± 10%.
For `COc1ccc(CCCc2cccc(NC(=O)Nc3ccccc3)c2)cc1` [C.2], the melting point fell in the range of 157 to 159 °C. Besides, the IC50 in data set [1] turned out to be 25 ± 5 µM. The same compound displayed an IC50 in data set [2] (Homo sapiens, Jurkat, 48 h) above 100 µM. In data set [3], this compound had an IC50 of 12 ± 1 µM. Moreover, the IC50 in data set [4] (Homo sapiens, HMEC-1, 48 h) is above 100 µM. The IC50 in data set [5] is above 100 µM.
The compound `COc1ccc(CCCc2cccc(NC(=O)Nc3ccccc3Br)c2)cc1` [C.11] displayed a melting point of 137 to 140 °C. In data set [1], the IC50 came out at 15 ± 4 µM. In data set [2], this compound came in with an IC50 of 26 ± 18 µM. Moreover, the IC50 in data set [2] (Homo sapiens, Jurkat, 48 h) is around 20 µM. In data set [3], this compound gave an IC50 of 27 ± 4 µM. 25 ± 1 µM corresponded to half-maximal inhibition in data set [4] (IC50). The same compound had an IC50 in data set [4] (Homo sapiens, HMEC-1, 48 h) of around 20 µM. The IC50 in data set [5] worked out at 20 ± 5 µM.
